Experimental data as given in US20250129096A1, “ANNULATED 2-AMINO-3-CYANO THIOPHENES AND DERIVATIVES FOR THE TREATMENT OF CANCER” (Boehringer Ingelheim Int'l GmbH Corp., priority 2021, published 2025).
pIC50: −log10 of the molar value. Read-outs that look alike come from different tables or passages of the source.

Experiments:
KRAS (G12D)::SOS1 = target: T1, KRAS (G12D)::SOS1 (Homo sapiens, UniProt P01116, G12D); experiment: KRAS::SOS1 AlphaScreen binding assay, KRAS G12D
T1 construct: KRAS (G12D) 1-169, N-terminal 6His-tag, C-terminal avi-tag; 6His-tag (N); purchased Xtal BioStructures, Inc. (KRAS G12D); Viva Biotech Ltd (SOS1)
Method: (§1) Low IC50 values in this assay setting are indicative of strong inhibition of protein-protein interaction between SOS1 and KRAS:
(§2) These assays measure the inhibitory effect of compounds on KRAS mutant protein-protein interactions using the Alpha Screen technology by Perkin Elmer.
(§3) For the chosen highest assay concentration of 100 μM, 150 nL of compound solution are transferred from a 10 mM DMSO compound stock solution. A series of eleven fivefold dilutions per compound are transferred to the assay plate, compound dilutions are tested in duplicates. DMSO are added as backfill to a total volume of 150 nL.
(§4) The assays run on a fully automated robotic system in a darkened room below 100 Lux. To 150 nl of compound dilution 10 μl of a mix including KRAS mutant protein, SOS1 (final assay concentrations see above) and GDP nucleotide (Sigma G7127; final assay concentration 10 μM) in assay buffer (1×PBS, 0.1% BSA, 0.05% Tween 20) are added into columns 1-24. After 30 minutes incubation time 5 μl of Alpha Screen bead mix in assay buffer are added into columns 1-23.
(§5) Plates are kept at room temperature in a darkened incubator. After an additional 60 minutes incubation time the signal is measured in a PerkinElmer Envision HTS Multilabel Reader using the AlphaScreen specs from PerkinElmer.
(§6) IC50 values are calculated and analyzed with Boehringer Ingelheim's MEGALAB IC50 application using a 4 parametric logistic model.

KRAS (G12C)::SOS1 = target: T2, KRAS (G12C)::SOS1 (Homo sapiens, UniProt P01116, C118S/C51S/C80L/G12C); experiment: KRAS::SOS1 AlphaScreen binding assay, KRAS G12C
T2 construct: KRAS (G12C) 1-169, N-terminal 6His-tag for purification, cleaved off; 6His-tag (N, cleaved yes)
Method: as §1, §2, §3, §4, §5, §6

KRAS G12D Ba/F3 cells = KRAS G12D Ba/F3 cells (Homo sapiens, UniProt P01116, G12D, cells depend on it); experiment: Ba/F3 proliferation assay, KRAS G12D; assay type: cell-based; details: 72 h, AlamarBlue; read-out: KRAS G12D Ba/F3 IC50
Method: (§7) To generate KRASG12-dependent Ba/F3 models, Ba/F3 cells are transduced with retroviruses containing vectors that harbor KRASG12 isoforms. Platinum-E cells (Cell Biolabs) are used for retrovirus packaging. Retrovirus is added to Ba/F3 cells. To ensure infection, 4 μg/mL polybrene is added and cells are spinfected. […] Cells with an infection efficiency of 10% to 20% are further cultivated and puromycin selection with 1 μg/mL is initiated. As a control, parental Ba/F3 cells are used to show selection status. Selection is considered successful when parental Ba/F3 cells cultures died. To evaluate the transforming potential of KRASG12 mutations, the growth medium is no longer supplemented with IL-3. Ba/F3 cells harboring the empty vector are used as a control. Approximately ten days before conducting the experiments, puromycin is left out. […] All treatments are performed in technical duplicates. […] AlamarBlue™(ThermoFisher), a viability stain, is added and fluorescence measured in the PerkinElmer Envision HTS Multilabel Reader. The raw data are imported into and analyzed with the Boehringer Ingelheim proprietary software MegaLab (curve fitting based on the program PRISM, GraphPad Inc.).

KRAS G12C Ba/F3 cells = KRAS G12C Ba/F3 cells (Homo sapiens, UniProt P01116, G12C, cells depend on it); experiment: Ba/F3 proliferation assay, KRAS G12C; assay type: cell-based; details: 72 h, AlamarBlue; read-out: KRAS G12C Ba/F3 IC50
Method: as §7

[1] = test system: NCI-H358 cells (NSCLC, G12C); experiment: NCI-H358 CTG proliferation assay (120 h), assay 2; assay type: cell-based; details: Homo sapiens, CellTiter-Glo, 384-well, 200 cells per well
Method: NCI-1H358 cells (ATCC No. CRL-5807) are dispensed into white bottom opaque 96 well plates (Perkin Elmer cat no. 5680) at a density of 2000 cells per well in 100 μL RPM 1-1640 ATCC-Formulation (Gibco #A10491)+10% FCS (fetal calf serum) (assay 1) or into black 384-well plates, flat and clear bottom (Greiner, PNr. 781091) at a density of 200 cells per well in 60 μl RPMI-1640 ATCC-Formulation (Gibco #A10491)+10% FCS (fetal calf serum) (assay 2). […] Compounds (10 mM stock in DMSO) are added at logarithmic dose series using the HP Digital Dispenser D300 (Tecan) (assay 1) or the ECHO acoustic liquid handler system (Beckman Coulter) (assay 2), normalizing for added DMSO and including DMSO controls. For the TO time point measurement, untreated cells are analyzed at the time of compound addition. Plates are incubated for 120 h, and cell viability is measured using CellTiter-Glo luminescent cell viability reagent (Promega product code G7570). Viability (stated as percent of control) is defined as relative luminescence units RLU of each well divided by the RLU of cells in DMSO controls. IC50 values are determined from viability measurements by non-linear regression using a four-parameter model.

CYP3A4 = target: T3, CYP3A4 (Homo sapiens, UniProt P08684); experiment: Mechanism based inhibition of CYP3A4 assay (MBI 3A4); assay type: in vitro ADME; details: 25 uM, hydroxy-midazolam formation after 30 min preincubation relative to 0 min, human liver microsomes
T3 construct: assayed in human liver microsomes (0.02 mg/mL) with midazolam (15 μM) as a substrate; from tissue; host or cells: human liver microsomes
Method: After preincubation, the incubate is diluted 1:10 and the substrate midazolam is added for the main incubation (15 min). The main incubation is quenched with acetonitrile and the formation of hydroxy-midazolam is quantified via LC/MS-MS. The formation of hydroxy-midazolam from the 30 min preincubation relative to the formation from the 0 min preincubation is used as a readout. Values of less than 100% mean that the substrate midazolam is metabolized to a lower extent upon 30 min preincubation compared to 0 min preincubation. In general low effects upon 30 min preincubation are desired (corresponding to values close to 100%/not different to the values determined with water control).

[2] = Solubility measurement (DMSO solution precipitation method); assay type: physicochemical; details: aqueous buffer, kinetic from dmso stock, ambient temperature
Method: The DMSO solution is diluted with an aqueous medium (McIlvaine buffer with pH=4.5 or 6.8) to a final concentration of 250 μM. After 24 h of shaking at ambient temperature a potentially formed precipitate is removed by filtration. The concentration of the test compound in the filtrate is determined by LC-UV methods by calibrating the signal to the signal of a reference solution with complete dissolution of the test compound in acetonitrile/water (1:1) with known concentration.

Caco-2 assay = assay type: in vitro ADME; details: human; for Papp A→B at 90 min, 10 μM: Caco-2, apical to basolateral, pH 7.4, read-out: Caco PappAB; for efflux ratio at 90 min, 10 μM: Caco-2, pH 7.4, efflux ratio PappBA/PappAB, read-out: Caco ER
Text: The assay provides information on the potential of a compound to pass the cell membrane, on the extent of oral absorption as well as on whether the compound is actively transported by uptake and/or efflux transporters. Permeability measurements across polarized, confluent Caco-2 cell monolayers grown on permeable filter supports (Corning, catalog #3391) are used. […] The receiver and donor compartments contain 0.25% bovine serum albumine (BSA) in assay buffer. Passive diffusion and/or active transport of compounds across the monolayer is measured in both apical to basolateral (a-b) and basolateral to apical (b-a) direction. a-b permeability (PappAB) represents drug absorption from the intestine into the blood and b-a permeability (PappBA) drug secretion from the blood back into the intestine via both passive permeability as well as active transport mechanisms mediated by efflux and uptake transporters that are expressed on the Caco-2 cells. After a pre-incubation of 25-30 min at 37° C., at predefined time points (0, 30, 60 and 90 min), samples were taken from the receiver and donor compartment, respectively. Concentrations of test compounds in samples were measured by HPLC/MS/MS, samples from the donor compartment were diluted 1:50 (v:v) with assay buffer, samples from receiver compartment were measured without dilution.
Apparent permeabilities in a-b (PappAB) and b-a (PappBA) directions are calculated according to the formula:
[formula] • Vrec [mL]: buffer volume in receiver compartment • Cdon [μmol/mL]: concentration of test compound in donor compartment at t=0 • ΔCrec: difference between concentrations of test compound in receiver compartment at start and end of incubation time • Δt: Incubation time • Vrec·ΔCrec/Δt [μmol/min]: Amount of compound transferred to receiver compartment per time • A [cm^2]: filter surface
Caco-2 efflux ratios (ER) are calculated as the ratio of PappBA/PappAB.

[3] = McIlvaine buffer pH 4.5, 24 h, read-out: solubility pH 4.5
[4] = McIlvaine buffer pH 6.8, 24 h, read-out: solubility pH 6.8

T1 sequence (P01116 1-169 isoform P01116-2 G12D): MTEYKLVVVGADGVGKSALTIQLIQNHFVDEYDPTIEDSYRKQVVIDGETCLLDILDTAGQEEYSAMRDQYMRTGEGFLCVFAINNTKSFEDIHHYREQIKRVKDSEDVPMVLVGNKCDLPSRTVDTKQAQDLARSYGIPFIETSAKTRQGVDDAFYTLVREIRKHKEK
T3 sequence (P08684 whole entry): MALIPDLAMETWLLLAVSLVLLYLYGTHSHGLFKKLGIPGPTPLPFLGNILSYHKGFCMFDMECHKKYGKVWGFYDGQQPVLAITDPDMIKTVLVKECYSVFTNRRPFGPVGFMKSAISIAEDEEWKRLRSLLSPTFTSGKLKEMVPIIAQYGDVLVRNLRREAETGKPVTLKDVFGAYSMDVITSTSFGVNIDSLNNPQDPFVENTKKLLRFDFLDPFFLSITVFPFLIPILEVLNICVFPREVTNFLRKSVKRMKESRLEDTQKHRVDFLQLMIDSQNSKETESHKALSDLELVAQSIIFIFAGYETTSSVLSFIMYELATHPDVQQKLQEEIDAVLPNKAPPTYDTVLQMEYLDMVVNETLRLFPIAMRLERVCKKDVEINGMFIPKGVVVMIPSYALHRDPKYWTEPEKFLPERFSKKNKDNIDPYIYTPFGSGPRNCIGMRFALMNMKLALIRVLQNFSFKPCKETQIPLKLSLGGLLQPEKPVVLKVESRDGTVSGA
Chain of KRAS G12C Ba/F3 cells (P01116 whole entry G12C): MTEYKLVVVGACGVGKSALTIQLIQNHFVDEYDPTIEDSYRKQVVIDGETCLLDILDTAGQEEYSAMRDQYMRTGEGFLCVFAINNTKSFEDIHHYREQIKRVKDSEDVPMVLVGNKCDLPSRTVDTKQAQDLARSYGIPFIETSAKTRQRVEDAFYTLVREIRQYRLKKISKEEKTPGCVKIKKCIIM
T2 sequence (P01116 1-169 isoform P01116-2 G12C/C51S/C80L/C118S): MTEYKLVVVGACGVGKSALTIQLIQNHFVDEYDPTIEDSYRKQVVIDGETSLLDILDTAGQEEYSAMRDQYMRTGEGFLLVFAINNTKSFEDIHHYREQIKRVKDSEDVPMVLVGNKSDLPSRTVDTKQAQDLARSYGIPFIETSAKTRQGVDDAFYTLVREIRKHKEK
Chain of KRAS G12D Ba/F3 cells (P01116 whole entry G12D, canonical isoform): as the sequence (P01116 whole entry G12C) above, with C12D counted along it

Row | Structure (SMILES) | pIC50 (KRAS (G12D)::SOS1) | pIC50 (KRAS (G12C)::SOS1) | GI50 (KRAS G12D Ba/F3 cells) | GI50 (KRAS G12C Ba/F3 cells) | pIC50 [1] | MBI 3A4 (CYP3A4) | solubility at 24 h [2, 3] | solubility at 24 h [2, 4] | Papp A→B at 90 min, 10 μM (Caco-2 assay) | efflux ratio at 90 min, 10 μM (Caco-2 assay)
1 | C[C@H](Oc1nccc(-c2noc3c2CCC[C@@]32CCCc3sc(N)c(C#N)c32)n1)[C@@H]1CCCN1C [IIb-6] | 8.70 | 8.40 | 13 nM | 19 nM | 6.40 | 52% | > 110 µg/mL | > 110 µg/mL | 21 ×10⁻⁶ cm/s | 1.3
2 | C[C@H](Oc1nccc(-c2onc3c2CCC[C@@]32CCCc3sc(N)c(C#N)c32)n1)[C@@H]1CCCN1C [Ib-1] | 8.70 | 8.52 | 24 nM | 51 nM | 5.84 | 54% | > 110 µg/mL | > 110 µg/mL | 26 ×10⁻⁶ cm/s | 1.3
